The conditions of data set [1]: cited from earlier work.
The test system of data set [2] is smooth muscle cells, fibroblasts or platelets. The note with it: binds to the integrin on human endothelial cells; cited from earlier work.
The next data set relates to PC12 cells. Conditions: NGF-primed cells, 48hr. As for the experimental part: (§1) A patterned polymer surface is prepared as described in Example 1;
(§2) Bovine aortic endothelial cells (BAECs) were maintained in low glucose Dulbecco's modifed Eagle's medium (DMEM) supplemented with 10% fetal bovine serum, 0.5% penicillin, 0.5% streptomycin and 1% L-glutamine in a humidified incubator at 37° C. and 5% CO2. Cells were passaged by trypsinisation before reaching confluence, usually every fifth day. Fresh media were added every other day. PC12 cells (ATCC CRL 1721) were grown in suspension culture in F-12K media supplemented with 15% horse serum, 2.5% fetal bovein serum, 0.5% penicillin, 0.5% streptomycin and 1% L-glutamine in a humidified incubator at 37° C. and 5% CO2. Cells were passaged 1:5 every third day. All cell culture reagents were obtained from Sigma unless otherwise stated.
(§3) BAECs between passages 7 and 9 were removed from tissue culture flasks by trypsinisation, pelleted by centrifugation, resuspended, washed three times and diluted to the appropriate concentration in serum-free MDEM. PC12 cells were primed with culture medium containing 50 ng/ml 7S nerve growth factor (NGF) 48 h prior to the experiment. The cells were pelleted by centrifugation, washed three times with serum-free F-12K medium, passed through a 22-guage needle to obtain a single cell suspension, and diluted to the appropriate concentration with serum-free. F-12K medium supplemented with 50ng/ml 7S NGF. For both cell types, approximately 10,000 cells/cm^2 were added to each sample and the plates returned to the incubator for the duration of the experiment (48hr). At the end point of the experiment, the samples were washed gently with PBS to remove unattached cells and visualised with a Nikon Diaphot TMD inverted microscope equipped with a Hitachi HV-C20 high resolution CCD video camera using phase contrast objectives. Images were digitised using NIH Image (v1.61) image analysis software. In addition, some BAEC samples were fixed in 10% neutral buffered formalin for 10 min, washed with water, and stained with hematoxylin for visualisation.

Data set [3] concerns Bovine aortic endothelial cells (BAECs). The note with it: 48hr. The procedure:
as §1, §2, §3

For CSRARKQAASIKVAVSADR, the water solubility result in data set [1] was “water soluble”.

IKVAV (SEQ ID NO:2): in data set [1], the water solubility result was “not significantly water soluble”. With REDV (SEQ ID NO:4), the “adhesion or spreading of smooth muscle cells, fibroblasts or platelets” value in data set [2] is recorded as “does not support adhesion or spreading”.

With “biotin-G5CSRARKQAASIKVAVSADR (SEQ ID NO:19)”, the “neurite outgrowth of PC12 cells on the micropattern” value with PC12 cells (neurites restricted from crossing the line boundary) is recorded as “Directionally controlled neurite outgrowth was stimulated”. In addition, in the data set on PC12 cells (serum-free F-12K with 50ng/ml 7S NGF, only a small degree of cell adhesion between the lines), the “adherence of PC12 cells to functionalised lines” value was “selective adherence”.

Turning to biotin-G11 GRGDS (SEQ ID NO:18), the “cell adhesion to the 30 or 12 μm-wide lines” value in data set [3] (30 or 12 μm-wide lines) is on record as “little cell adhesion”. In data set [3] (70 and 50 μm width lines), the “cell coverage of the 70 and 50 μm width lines” value is recorded as “Complete cell coverage”. For the same substance, the “adhesion and spreading of BAECs on functionalised lines” value in data set [3] (serum-free medium, approximately 10,000 cells/cm^2, no adhesion to unfunctionalised areas between the lines) was “adhered and spread”.
